Activity calls are given as the source filed them. No cut-off for these calls is given here.
Legend:
H5N1 subtype [1] = experiment: Antiviral activity against Influenza A virus (A/Thailand/Kan353/2004(H5N1)) infected in MDCK cells assessed as inhibition of viral entry; type: functional, organism-based
Influenza A virus [2] = type: functional, organism-based; conditions: H5N1
[3] = Binding affinity to HA2 subunit by SPR assay; design: species or system Influenza A virus
Influenza A virus [4] = experiment: microbe, parasite or virus in culture; conditions: A/Puerto Rico/8/1934(H1N1), A549
MDCK = experiment: Cytotoxicity against MDCK cells assessed as cell viability; type: cell-based, Canis lupus familiaris; conditions: dog
Hemagglutinin = Hemagglutinin (Influenza A virus, UniProt B4URE7); experiment: Binding affinity to hemagglutinin by SPR assay
Chain of Hemagglutinin (B4URE7 whole entry): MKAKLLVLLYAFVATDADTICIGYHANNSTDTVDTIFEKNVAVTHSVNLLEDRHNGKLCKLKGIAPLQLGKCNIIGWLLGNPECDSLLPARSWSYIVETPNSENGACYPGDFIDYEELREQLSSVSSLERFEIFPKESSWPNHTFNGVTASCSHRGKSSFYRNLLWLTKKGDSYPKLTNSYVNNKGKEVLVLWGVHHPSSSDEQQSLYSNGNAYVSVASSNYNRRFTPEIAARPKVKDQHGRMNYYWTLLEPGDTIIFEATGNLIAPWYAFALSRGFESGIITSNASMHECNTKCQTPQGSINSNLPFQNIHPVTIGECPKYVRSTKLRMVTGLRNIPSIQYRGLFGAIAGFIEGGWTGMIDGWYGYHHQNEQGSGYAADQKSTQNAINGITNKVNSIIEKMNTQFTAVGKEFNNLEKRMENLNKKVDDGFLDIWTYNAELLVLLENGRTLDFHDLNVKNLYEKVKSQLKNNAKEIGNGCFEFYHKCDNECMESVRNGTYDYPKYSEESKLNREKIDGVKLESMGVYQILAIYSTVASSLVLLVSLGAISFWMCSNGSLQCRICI

Influenza A virus [5] = experiment: Inhibition of hemagglutinin 5 in Influenza A virus assessed as inhibition of chicken erythrocytes aggregation
H5N1 subtype [6] = type: functional, organism-based; conditions: 5 uM
[7] = Cytotoxicity against human A549 cells assessed as reduction in cell viability by MTT assay; type: cell-based
[8] = test system: Vesicular stomatitis virus; experiment: Antiviral activity against VSV-G enveloped pseudovirus infected in MDCK cells assessed as inhibition of viral entry; type: functional, organism-based
[9] = test system: Influenza A virus (A/Thailand/Kan353/2004(H5N1)); experiment: Inhibition of Influenza A virus (A/Thailand/Kan353/2004(H5N1)) neuraminidase N1 using fluorogenic 2'-(4-Methylumbelliferyl)-alpha-D-N-acetylneuraminic acid sodium salt hydrate as substrate measured after 30 mins by microplate reader analysis

C[C@H]1[C@H](C)CC[C@]2(C(=O)NCCN3CCOCC3)CC[C@]3(C)C(=CC[C@@H]4[C@@]5(C)CC[C@H](O[C@@H]6O[C@H](CO)[C@@H](O[C@@H]7O[C@@H](C)[C@H](O)[C@@H](O)[C@H]7O)[C@H](O)[C@H]6O[C@@H]6O[C@@H](C)[C@H](O)[C@@H](O)[C@H]6O)C(C)(C)[C@@H]5CC[C@]43C)[C@H]12
IC50 (H5N1 subtype [1]): 3.88 µM
inhibition (Influenza A virus [2]): Dose-dependent effect
Kd [3]: 0.00017 µM
IC50 (Influenza A virus [4]): 18.2 µM
Activity (MDCK): Non-Toxic
Kd (Hemagglutinin): 0.0161 µM
inhibition (Influenza A virus [5]): inactive
inhibition (H5N1 subtype [6]): Active
CC50 [7]: > 200 µM
inhibition [8]: inactive
inhibition [9]: inactive

C[C@H]1[C@H](C)CC[C@]2(C(=O)NCCN3CCCCC3)CC[C@]3(C)C(=CC[C@@H]4[C@@]5(C)CC[C@H](O[C@@H]6O[C@H](CO)[C@@H](O[C@@H]7O[C@@H](C)[C@H](O)[C@@H](O)[C@H]7O)[C@H](O)[C@H]6O[C@@H]6O[C@@H](C)[C@H](O)[C@@H](O)[C@H]6O)C(C)(C)[C@@H]5CC[C@]43C)[C@H]12
IC50 (Influenza A virus [4]): 21.3 µM
CC50 [7]: > 200 µM
inhibition [9]: inactive

CCOC(=O)C1=C[C@@H](OC(CC)CC)[C@H](NC(C)=O)[C@@H](N)C1 [OSELTAMIVIR]
IC50 (Influenza A virus [4]): 4.61 µM
CC50 [7]: > 200 µM

C[C@H]1[C@H](C)CC[C@]2(C(=O)O)CC[C@]3(C)C(=CC[C@@H]4[C@@]5(C)CC[C@H](O[C@@H]6O[C@H](CO)[C@@H](O[C@@H]7O[C@@H](C)[C@H](O)[C@@H](O)[C@H]7O)[C@H](O)[C@H]6O[C@@H]6O[C@@H](C)[C@H](O)[C@@H](O)[C@H]6O)C(C)(C)[C@@H]5CC[C@]43C)[C@H]12
IC50 (Influenza A virus [4]): 38.1 µM
CC50 [7]: 66.6 µM
